This is an account of results in patent US20230090683A1, “ASPACYTARABINE PHARMACEUTICAL COMPOSITIONS AND USES THEREOF” (Biosight Ltd., priority 2020, published 2023).

Format in all cases: physicochemical
Series [1] in a line: Solubility and stability of aspacytarabine hydrochloride salt in 3% aqueous solutions of stabilizers/solubilizers after 24 hours (Table 2). How it is done: In another study, aspacytarabine hydrochloride salt was added to 3% aqueous solution of different stabilizers/solubilizers (See Table 2) at pH˜5.
The nature of series [2]: Solubility of aspacytarabine in different solubilizers/stabilizers (Table 1, FIG. 1). To be noted: thermodynamic from solid, read-out: Conc (solubility of aspacytarabine); for solubility at 24 h: after 24 hours, room temperature. As to the method: FIG. 1 depicts solubility (mg/ml) of aspacytarabine with (i) Tween 20, 1% (non-linear polymer); (ii) PEG 400 (neat); (iii) an aqueous solution including 1% w/w poloxamer; (iv) an aqueous solution including 2% w/w poloxamer; and (v) an aqueous solution including 1% w/w poloxamer and 5% w/w PVP, where “P188” is poloxamer 188 and “PVP” is polyvinylpyrrolidone. The solubility was measured after 24 hours in room temperature at pH 4.5.
Aspacytarabine or its hydrochloride salt was stirred with various ingredients in various conditions (separate experiment for each component/condition) in order to prepare compositions thereof. […] Among components tested were organic solvents (e.g. glycerol, ethanol, polyethylene glycol (PEG, e.g. PEG 400), dimethylacetamide and propylene glycol) and polymers (e.g. Polyoxyethylated 12-hydroxystearic acid, Polyethylene glycol, sorbitan monolaurate, polyvinylpyrrolidone (PVP), triblock copolymer of polyethylene/propylene oxide (poloxamer) and cyclodextrin and/or derivatives thereof). […] See comparative results in FIG. 1 and Table 1:
Compositions 1, 2a-2d, 3 as described in Example 2 were dissolved in an aqueous solution at room temperature. Composition 4 is aspacytarabine in neat PEG 400.

A short description of series [3]: Solubility and stability of aspacytarabine free base and acid salt in aqueous media. An excerpt:
Thus, there is an unmet need for a stable and highly concentrated solutions and/or high dosage composition comprising aspacytarabine.

Setting [4] is: hydrochloride salt in 3% aqueous PVP 10 kDa + PEG 300, pH~5, room temperature.
[5] abbreviates: hydrochloride salt in 3% aqueous Poloxamer 188 + PEG 300, pH~5, room temperature.
Setting [6] is: hydrochloride salt in 3% aqueous Poloxamer 188, pH~5, room temperature.
Where [7] appears, read: hydrochloride salt, control without stabilizers and/or solubilizer, pH~5, room temperature.

Molecules are shown by their SMILES. Values after ≈ are worked out from the molar mass of the structure shown. Read-outs that look alike come from different tables or passages of the source.

For `N[C@@H](CC(=O)Nc1ccn([C@@H]2O[C@H](CO)[C@@H](O)[C@@H]2O)c(=O)n1)C(=O)O` [aspacytarabine, (S)-2-amino-4-((1-((2R,3S,4S,5R)-3,4-dihydroxy-5-(hydroxymethyl)tetrahydrofuran-2-yl)-2-oxo-1,2-dihydropyrimidin-4-yl)amino)-4-oxobutanoic acid], the “Concentration after 24 h” value in series [1] (setting [4]) was 91.6 ± 8.4 mg/mL; in series [1] (setting [5]) it was 80.6 ± 2.2 mg/mL; in series [1] (setting [6]) it was 81.8 ± 3.2 mg/mL; in series [1] (setting [7]) it was 17.2 ± 0.4 mg/mL. Moreover, the Initial appearance result in series [1] (setting [4]), in series [1] (setting [5]), in series [1] (setting [6]) and in series [1] (setting [7]) was “Clear” throughout. Further, the Initial concentration in series [1] (setting [4]) is listed as 87.1 ± 0.0 mg/mL; in series [1] (setting [5]), 87.3 ± 0.4 mg/mL; in series [1] (setting [6]) it was 87.3 ± 0.2 mg/mL; in series [1] (setting [7]) it was 86.6 ± 1.1 mg/mL. Besides, the “Appearance after 24 h” value in series [1] (setting [5]) and in series [1] (setting [6]) was “Clear” each time. Moreover, the solubility at 24 h in series [2] (1% Tween 20, aqueous with cosolvent or surfactant or cyclodextrin, solubilizer/stabilizer Tween 20 (1%, non-linear polymer), pH 4.5) is 14.3 mg/mL (≈ 40 mM); in series [2] (aqueous solution with 1% w/w poloxamer 188, aqueous with cosolvent or surfactant or cyclodextrin, solubilizer/stabilizer Poloxamer 1% w/w aqueous solution, pH 4.5), 95.3 mg/mL (≈ 266 mM); in series [2] (aqueous solution with 1% w/w poloxamer 188 and 5% w/w PVP, aqueous with cosolvent or surfactant or cyclodextrin, solubilizer/stabilizer Poloxamer 1% + 5% PVP aqueous solution, pH 4.5), 90.9 mg/mL; in series [2] (aqueous solution with 2% w/w poloxamer 188, aqueous with cosolvent or surfactant or cyclodextrin, solubilizer/stabilizer Poloxamer 2% w/w aqueous solution, pH 4.5), 94.9 mg/mL (≈ 265 mM); in series [2] (neat PEG 400, pH 4.5, organic solvent or mixture, solubilizer/stabilizer PEG400 (neat)), 50.5 mg/mL (≈ 141 mM). The solubility in series [2] (Kolliphor ELP as solubilizer/stabilizer, aqueous with cosolvent or surfactant or cyclodextrin, solubilizer/stabilizer Kolliphor ELP) was 17.8 mg/mL (≈ 49.7 mM); in series [2] (Solutol HS15 as solubilizer/stabilizer, aqueous with cosolvent or surfactant or cyclodextrin, solubilizer/stabilizer Solutol HS15), 16.1 mg/mL (≈ 45.1 mM). Also, in series [3], the “solubility in aqueous media” value was “low solubility”.

The solubility is the concentration that dissolves in the medium under given conditions.
